Test results as given in patent US20100137313A1 (ASTRAZENECA AB, priority 2008, published 2010).

Target: S. pneumoniae Topoisomerase IV ATPase (ParE) (Streptococcus pneumoniae serotype 4, UniProt Q59961)
Test: S. pneumoniae Topoisomerase IV ATPase inhibition
Format: biochemical
Details: values marked * are an average of two or more data points; for inhibition at 13 µM: read-out: % Inh (13 μM) of S. pneumoniae Topoisomerase IV ATPase
In short: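 Phosphate-release ATPase assay: 1.25 nM ParE, 160 μM ATP, DNA-stimulated. Quench with malachite green/molybdate in 1 M HCl, read 650 nm; IC50 from 10-point dose series.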

Chain of S. pneumoniae Topoisomerase IV ATPase (ParE) (Q59961 whole entry): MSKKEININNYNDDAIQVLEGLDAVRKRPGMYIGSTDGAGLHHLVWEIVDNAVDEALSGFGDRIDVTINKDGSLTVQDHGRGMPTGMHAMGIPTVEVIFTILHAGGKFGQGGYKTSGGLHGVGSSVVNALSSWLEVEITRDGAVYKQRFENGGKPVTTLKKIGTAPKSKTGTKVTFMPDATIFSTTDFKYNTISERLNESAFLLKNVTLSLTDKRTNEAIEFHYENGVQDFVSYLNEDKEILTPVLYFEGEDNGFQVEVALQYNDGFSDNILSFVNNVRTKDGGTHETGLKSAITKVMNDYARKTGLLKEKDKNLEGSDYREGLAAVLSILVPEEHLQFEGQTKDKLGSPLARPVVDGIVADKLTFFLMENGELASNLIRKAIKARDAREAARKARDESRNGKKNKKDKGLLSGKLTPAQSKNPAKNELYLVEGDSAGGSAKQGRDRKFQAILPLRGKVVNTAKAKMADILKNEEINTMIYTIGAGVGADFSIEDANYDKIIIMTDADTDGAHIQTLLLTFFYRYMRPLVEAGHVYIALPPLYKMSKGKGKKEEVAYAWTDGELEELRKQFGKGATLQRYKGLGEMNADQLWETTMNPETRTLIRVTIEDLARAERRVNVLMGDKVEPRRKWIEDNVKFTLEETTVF

Cc1cc(C(F)(F)F)nn1-c1nc(Nc2ccc(F)c(Cl)c2)ncc1-c1cc(C(=O)O)c(=O)n(CCS(C)(=O)=O)c1 [Example 1093, 5-(2-(3-Chloro-4-fluorophenylamino)-4-(5-methyl-3-(trifluoromethyl)-1H-pyrazol-1-yl)pyrimidin-5-yl)-1-(2-(methylsulfonyl)ethyl)-2-oxo-1,2-dihydropyridine-3-carboxylic acid]
inhibition at 13 µM: 100%

COCCONC(=O)c1cc(-c2cnc(Nc3cc(OC)cc(OC)c3)nc2-n2ccc(C(F)(F)F)n2)cnc1OC [Example 1168, 5-(2-(3,5-dimethoxyphenylamino)-4-(3-(trifluoromethyl)-1H-pyrazol-1-yl)pyrimidin-5-yl)-2-methoxy-N-(2-methoxyethoxy)nicotinamide]
inhibition at 13 µM: 100%

CCOC(=O)c1cncc(-c2cnc(Nc3ccc(F)c(Cl)c3)nc2NC(C)C)c1 [Example 116, ethyl 5-[2-[(3-chloro-4-fluorophenyl)amino]-4-(propan-2-ylamino)pyrimidin-5-yl]pyridine-3-carboxylate]
inhibition at 13 µM: 82%

COc1cc(Nc2ncc(-c3cncc(C(=O)NCCO)c3)c(-n3nc(C(F)(F)F)cc3C)n2)cc(OC)c1 [Example 683, 5-{2-[(3,5-dimethoxyphenyl)amino]-4-[5-methyl-3-(trifluoromethyl)-1H-pyrazol-1-yl]pyrimidin-5-yl}-N-(2-hydroxyethyl)pyridine-3-carboxamide]
inhibition at 13 µM: 100%

O=C(O)c1cc2ccc(-c3cnc(Nc4ccc(F)c(Cl)c4)nc3N3CCOCC3)cc2[nH]1 [Example 1063, 6-(2-(3-Chloro-4-fluorophenylamino)-4-morpholinopyrimidin-5-yl)-1H-indole-2-carboxylic acid]
inhibition at 13 µM: 94%

CCOC(=O)c1cncc(-c2cnc(Nc3ccc(F)c(Cl)c3)nc2NCCc2ccccn2)c1 [Example 101, 5-[2-(3-Chloro-4-fluoro-phenylamino)-4-(2-pyridin-2-yl-ethylamino)-pyrimidin-5-yl]-nicotinic acid ethyl ester]
inhibition at 13 µM: 8.69%

COc1ncc(-c2cnc(Nc3cccc(C(C)=O)c3)nc2-n2nc(C(F)(F)F)cc2C)cc1C(=O)O [Example 721, 5-{2-[(3-acetylphenyl)amino]-4-[5-methyl-3-(trifluoromethyl)-1H-pyrazol-1-yl]pyrimidin-5-yl}-2-methoxypyridine-3-carboxylic acid]
inhibition at 13 µM: 100%

COc1cc(C)cc(Nc2ncc(-c3cnc(OC)c(C(=O)NS(C)(=O)=O)c3)c(-n3ccc(C(F)(F)F)n3)n2)c1 [Example 856, 2-methoxy-5-{2-[(3-methoxy-5-methylphenyl)amino]-4-[3-(trifluoromethyl)-1H-pyrazol-1-yl]pyrimidin-5-yl}-N-(methylsulfonyl)pyridine-3-carboxamide]
inhibition at 13 µM: 100%

Cc1cc(C(F)(F)F)nn1-c1nc(Nc2ccc(F)c(Cl)c2)ncc1-c1cnc(OC(C)C)c(C(=O)O)c1 [Example 960, 5-(2-(3-chloro-4-fluorophenylamino)-4-(5-methyl-3-(trifluoromethyl)-1H-pyrazol-1-yl)pyrimidin-5-yl)-2-isopropoxynicotinic acid]
inhibition at 13 µM: 100%

CCNS(=O)(=O)c1cccc(-c2cnc(Nc3ccc(F)c(Cl)c3)nc2-n2ccc(C(F)(F)F)n2)c1 [Example 995, 3-(2-(3-Chloro-4-fluorophenylamino)-4-(3-(trifluoromethyl)-1H-pyrazol-1-yl)pyrimidin-5-yl)-N-ethylbenzenesulfonamide]
inhibition at 13 µM: 89%

COCCCNc1nc(Nc2ccc(F)c(Cl)c2)ncc1-c1ccc(C(C)=O)s1 [Example 179, 1-(5-(2-(3-chloro-4-fluorophenylamino)-4-(3-methoxypropylamino)-pyrimidin-5-yl)thiophen-2-yl)ethanone]
inhibition at 13 µM: 93.9%

Cc1cc(C(F)(F)F)nn1-c1nc(Nc2ccc(F)c(Cl)c2)ncc1-c1cnc(OCCN2CCN(C)CC2)c(C(=O)O)c1 [Example 963, 5-(2-(3-chloro-4-fluorophenylamino)-4-(5-methyl-3-(trifluoromethyl)-1H-pyrazol-1-yl)pyrimidin-5-yl)-2-(2-(4-methylpiperazin-1-yl)ethoxy)nicotinic acid]
inhibition at 13 µM: 100%

O=C(O)[C@H]1C[C@H]1c1cccc(-c2cnc(Nc3ccc(F)c(Cl)c3)nc2-n2ccc(C(F)(F)F)n2)c1 [Example 576, (1S,2R)-2-(3-(2-(3-chloro-4-fluorophenvlamino)-4-(3-(trifluoromethyl)-1H-pyrazol-1-yl)pyrimidin-5-yl)phenyl)cyclopropanecarboxylic acid]
% Inh (13 μM) of S. pneumoniae Topoisomerase IV ATPase: 100%

COc1cccc(Nc2ncc(-c3cncc(C(=O)O)c3)c(N3CCOCC3)n2)c1 [Example 439]
inhibition at 13 µM: 62%

O=C(O)[C@@H]1C[C@H]1c1cccc(-c2cnc(Nc3ccc(F)c(Cl)c3)nc2-n2ccc(C(F)(F)F)n2)c1 [Example 575, (1R,2R)-2-(3-(2-(3-chloro-4-fluorophenvlamino)-4-(3-(trifluoromethyl)-1H-pyrazol-1-yl)pyrimidin-5-yl)phenyl)cyclopropanecarboxylic acid]
% Inh (13 μM) of S. pneumoniae Topoisomerase IV ATPase: 100%

CC(=O)Nc1ccn(-c2nc(Nc3ccc(F)c(Cl)c3)ncc2-c2cccc(/C=C/C(=O)O)c2)n1 [Example 566, (2E)-3-(3-{4-[3-(acetylamino)-1H-pyrazol-1-yl]-2-[(3-chloro-4-fluorophenyl)amino]pyrimidin-5-yl}phenyl)prop-2-enoic acid]
inhibition at 13 µM: 52%

O=C(O)/C=C/c1cccc(-c2cnc(Nc3ccc(F)c(CO)c3)nc2N2CCOCC2)c1 [Example 516, (2E)-3-{3-[2-{[4-fluoro-3-(hydroxymethyl)phenyl]amino}-4-(morpholin-4-yl)pyrimidin-5-yl]phenyl}prop-2-enoic acid]
inhibition at 13 µM: 98%

Cc1cccc(Nc2ncc(-c3cccc(/C=C/C(=O)O)c3)c(-n3nc(C(F)(F)F)cc3C)n2)c1 [Example 695, (2E)-3-(3-{2-[(3-methylphenyl)amino]-4-[5-methyl-3-(trifluoromethyl)-1H-pyrazol-1-yl]pyrimidin-5-yl}phenyl)prop-2-enoic acid]
inhibition at 13 µM: 100%

COC(=O)CC(=O)c1cncc(-c2cnc(Nc3ccc(F)c(Cl)c3)nc2-n2nc(C(F)(F)F)cc2C)c1 [Example 1041, Methyl 3-(5-(2-(3-chloro-4-fluorophenylamino)-4-(5-methyl-3-(trifluoromethyl)-1H-pyrazol-1-yl)pyrimidin-5-yl)pyridin-3-yl)-3-oxopropanoate]
inhibition at 13 µM: 100%

O=C(O)c1cc(-c2cnc(Nc3ccc(F)c(Cl)c3)nc2-n2ccc(C(F)(F)F)n2)cnc1OCCn1ccnc1 [Example 797, 5-{2-[(3-chloro-4-fluorophenyl)amino]-4-[3-(trifluoromethyl)-1H-pyrazol-1-yl]pyrimidin-5-yl}-2-[2-(1H-imidazol-1-yl)ethoxy]pyridine-3-carboxylic acid]
inhibition at 13 µM: 100%

COc1cc(F)cc(Nc2ncc(-c3cncc(C(=O)O)c3)c(-n3nc(C(F)(F)F)cc3C)n2)c1 [Example 916, 5-(2-(3-fluoro-5-methoxyphenylamino)-4-(5-methyl-3-(trifluoromethyl)-1H-pyrazol-1-yl)pyrimidin-5-yl)nicotinic acid]
inhibition at 13 µM: 99%

COCCCNc1nc(Nc2ccc(F)c(Cl)c2)ncc1-c1nc(-c2nccs2)cs1 [Example 502, 5-(2,4′-bi-1,3-thiazol-2′-yl)-N^2-(3-chloro-4-fluorophenyl)-N^4-(3-methoxypropyl)pyrimidine-2,4-diamine]
inhibition at 13 µM: 10%
